A short description of data set [1]: Hemolytic activity at human Erythrocyte assessed as hemolysis at 100 microg/ml. To be noted: erythrocytes, at 100 µg/mL, read-out: Activity. The data set is classed as toxicity, cell-based.
Data set [2] concerns Peritoneal macrophage. Description: Antiinflammatory activity in mouse Peritoneal macrophage cells assessed as inhibition of LPS-induced TNF-alpha production at 20 microg/ml incubated for 6 hrs by ELISA analysis. Conditions: dose 20.0 µg/ml. The data set is classed as functional, cell-based.
The subject of data set [3] is Peritoneal macrophage. Description: Antiinflammatory activity in mouse Peritoneal macrophage cells assessed as inhibition of LPS-induced IL-6 production at 20 microg/ml incubated for 6 hrs by ELISA analysis. The data set is classed as functional, cell-based. Conditions: dose 20.0 µg/ml.
Data set [4] concerns Peritoneal macrophage. Description: Antiinflammatory activity in mouse Peritoneal macrophage cells assessed as inhibition of LPS-induced IL-6 production my measuring fold change at 20 microg/ml incubated for 6 hrs by ELISA analysis. The data set is classed as functional. Conditions: dose 20 µg/ml.
Data set [5] concerns Staphylococcus aureus. Nature of the data set: Antimicrobial activity against Staphylococcus aureus CMCC 26003 at 5 times MIC measured at 180 mins. The data set is classed as functional, organism-based.
The next data set has as its target Trypsin (Homo sapiens, UniProt P07477+P07478+P35030). Nature of the data set: Stability of compound assessed as trypsin (unknown origin) mediated drug degradation […] measured after 24 hrs by RP-HPLC analysis. The data set is classed as ADME, protein assay. To be noted: read-out: Activity.
The next data set deals with Enterococcus faecium. Nature of the data set: Antimicrobial activity against Enterococcus faecium 34 assessed as reduction in microbial growth incubated for 18 hrs by broth microdilution method. The data set is classed as functional.
Data set [6] concerns Escherichia coli. Description: Antimicrobial activity against Escherichia coli ATCC 25922 assessed as reduction in microbial growth incubated for 18 hrs by broth microdilution method. The data set is classed as functional.
The subject of data set [7] is Escherichia coli. Description: Antimicrobial activity against Escherichia coli CMCC44102 assessed as reduction in microbial growth incubated for 18 hrs by broth microdilution method. The data set is classed as functional.
In the next data set the test system is Acinetobacter baumannii. Description: Antimicrobial activity against Acinetobacter baumannii ATCC19606 assessed as reduction in microbial growth incubated for 18 hrs by broth microdilution method. The data set is classed as functional.
The next data set deals with Pseudomonas aeruginosa. Description: Antimicrobial activity against Pseudomonas aeruginosa CMCC10104 assessed as reduction in microbial growth incubated for 18 hrs by broth microdilution method. The data set is classed as functional.
Another data set deals with Salmonella enteritidis. Description: Antimicrobial activity against Salmonella enterica subsp. enterica serovar Enteritidis ATCC 14028 assessed as reduction in microbial growth incubated for 18 hrs by broth microdilution method. The data set is classed as functional.
For data set [8], the system named is Staphylococcus aureus. Description: Antimicrobial activity against Staphylococcus aureus CMCC 26003 assessed as reduction in microbial growth incubated for 18 hrs by broth microdilution method. The data set is classed as functional.
For the next data set, the system named is Clostridium perfringens. Nature of the data set: Antimicrobial activity against Clostridium perfringens ATCC 13124 assessed as reduction in microbial growth incubated for 18 hrs by broth microdilution method. The data set is classed as functional.
Data set [9] has as its system Staphylococcus aureus. Nature of the data set: Antimicrobial activity against Staphylococcus aureus ATCC 43300 assessed as reduction in microbial growth incubated for 18 hrs by broth microdilution method. The data set is classed as functional.
The next data set deals with Enterococcus faecalis. Description: Antimicrobial activity against Enterococcus faecalis ATCC 29217 assessed as reduction in microbial growth incubated for 18 hrs by broth microdilution method. The data set is classed as functional.
Data set [10] deals with Staphylococcus epidermidis. Description: Antimicrobial activity against Staphylococcus epidermidis assessed as reduction in microbial growth incubated for 18 hrs by broth microdilution method. The data set is classed as functional.
Data set [11] relates to Staphylococcus aureus. Nature of the data set: Antimicrobial activity against Staphylococcus aureus 08032706 assessed as reduction in microbial growth incubated for 18 hrs by broth microdilution method. The data set is classed as functional.
In data set [12] the test system is Staphylococcus aureus. Nature of the data set: Antimicrobial activity against Staphylococcus aureus CMCC 26003 at 5 times MIC by time kill assay. The data set is classed as functional, organism-based. Conditions: time 180.0 min.

Active and inactive are the calls of the source. The calls are words filed in the database; no cut-off is given here. Starred links: 1 amine or outer side, 2 acyl side, 3 side chain; linkers in the order of their positions; H or OH if unused. Positions of bridges follow the written chain, without caps; N, C: chain ends. Non-standard residues stand in square brackets, D forms with d. Residues, ends and D or L forms follow the SMILES beside them. X1 = C[C@@](CCCCC=[*:3])(N[*:1])C(=O)[*:2]; hArg = N=C(N)NCCCC[C@H](N)C(=O)O

Turning to `CC[C@H](C)[C@H](NC(=O)[C@H](CCCNC(=N)N)NC(=O)[C@H](CO)NC(=O)[C@H](Cc1c[nH]cn1)NC(=O)[C@H](CCCNC(=N)N)NC(=O)[C@H](CC(C)C)NC(=O)[C@@H](NC(=O)[C@H](CCCNC(=N)N)NC(=O)CNC(=O)[C@H](CC(C)C)NC(=O)[C@H](CCC(N)=O)NC(=O)[C@H](CCCCN)NC(=O)[C@]1(C)CCCC/C=C\CCCC[C@](C)(N)C(=O)N[C@@H](CCCCN)C(=O)N[C@@H](CCCCN)C(=O)N[C@@H](C(C)C)C(=O)N1)C(C)C)C(=O)N[C@H](C(=O)N[C@H](C(=O)NCC(=O)NCC(=O)N[C@@H](CCCNC(=N)N)C(=O)N[C@@H](CCSC)C(=O)N[C@@H](CCCNC(=N)N)C(=O)N[C@@H](Cc1ccccc1)C(=O)O)C(C)C)[C@@H](C)O` (H-[X1]KKV[X1]KQLGRVLRHSRITVGGRMRF-OH; staple (Z) 1-5), the hemolysis at 100 microg/ml in data set [1] is less than 5%. Further, the outcome in the data set with Peritoneal macrophage [2] and with Peritoneal macrophage [3] was Active. Further, the “fold change (FC)” value with Peritoneal macrophage [4] is 2. In addition, the outcome in the data set with Staphylococcus aureus [5] was inactive.
As to `CC[C@H](C)[C@H](NC(=O)[C@H](CCCCNC(=N)N)NC(=O)[C@H](CO)NC(=O)[C@H](Cc1c[nH]cn1)NC(=O)[C@H](CCCCNC(=N)N)NC(=O)[C@H](CC(C)C)NC(=O)[C@@H](NC(=O)[C@H](CCCCNC(=N)N)NC(=O)CNC(=O)[C@H](CC(C)C)NC(=O)[C@H](CCC(N)=O)NC(=O)[C@H](CCCCNC(=N)N)NC(=O)[C@H](CCCCNC(=N)N)NC(=O)[C@@H](NC(=O)[C@H](CCCCNC(=N)N)NC(=O)[C@H](CCCCNC(=N)N)NC(=O)[C@@H](N)Cc1ccccc1)C(C)C)C(C)C)C(=O)N[C@H](C(=O)N[C@H](C(=O)NCC(=O)NCC(=O)N[C@@H](CCCCNC(=N)N)C(=O)N[C@@H](CCSC)C(=O)N[C@@H](CCCCNC(=N)N)C(=O)N[C@@H](Cc1ccccc1)C(=O)O)C(C)C)[C@@H](C)O` (H-F[hArg][hArg]V[hArg][hArg]QLG[hArg]VL[hArg]HS[hArg]ITVGG[hArg]M[hArg]F-OH), the hemolysis at 100 microg/ml in data set [1] was less than 5%. The result in the data set on Peritoneal macrophage [2] and in the data set with Peritoneal macrophage [3] was Active. For the same compound, the metabolised at 24 h at Trypsin is approximately 20%. In the data set with Staphylococcus aureus [5], the outcome was inactive.
As for `CC1(C)S[C@@H]2[C@H](NC(=O)[C@H](N)c3ccccc3)C(=O)N2[C@H]1C(=O)O` [AMPICILLIN], the MIC with Enterococcus faecium is less than 0.78 µg/mL; with Escherichia coli [6] it was 2.34 µg/mL; in the data set on Escherichia coli [7], 2.34 µg/mL; in the data set on Acinetobacter baumannii, more than 100 µg/mL; in the data set with Pseudomonas aeruginosa, more than 100 µg/mL; in the data set with Salmonella enteritidis, 1.17 µg/mL. For the same compound, the MIC in the data set on Staphylococcus aureus [8] is less than 0.78 µg/mL; with Clostridium perfringens, 2.34 µg/mL; in the data set with Staphylococcus aureus [9], 9.38 µg/mL; with Enterococcus faecalis, less than 0.78 µg/mL; in data set [10] it was 2.34 µg/mL; in the data set with Staphylococcus aureus [11], less than 0.78 µg/mL. The AC30 entry with Staphylococcus aureus [12] was “Active”.
